From US12146004B2, “Polymyxin compounds and uses thereof” (priority 2014, dated 2024)
Values after ≈ are worked out from the molar mass of the structure shown. Bridge positions count the residues as written; N and C are the ends. Square brackets hold non-standard residues; d marks the D form. Peptide text beside a SMILES is read from it. * marks the point of attachment. ξ: configuration not given here. dBip = N[C@H](Cc1ccc(-c2ccccc2)cc1)C(=O)O; dPhe(4-Br) = N[C@H](Cc1ccc(Br)cc1)C(=O)O; Gly(octyl) = CCCCCCCC[C@H](N)C(=O)O; Octanoyl(6-Me) = CCC(C)CCCCC(=O)*; Thr(3ξ) = CC(O)[C@H](N)C(=O)O; X1 = CC(C)CN1CCNC[C@H]1C(=O)*; Octanoyl = CCCCCCCC(=O)*; Dab = NCC[C@H](N)C(=O)O; Dap = NC[C@H](N)C(=O)O; X18 = CCCCC(CCN)C(=O)*

What was measured:
Type in all cases: cell-based
[1] = tested on: Escherichia coli, Pseudomonas aeruginosa, Klebsiella pneumoniae and Acinetobacter baumannii; test: Susceptibility testing, comparisons in words across the Gram negative pathogens; conditions: for activity against polymyxin resistant strains: versus comparator compound
Description: To evaluate the potency and spectrum of the compounds, susceptibility testing was performed against up to nine strains of each of the Gram negative pathogens, Escherichia coli, Pseudomonas aeruginosa, Klebsiella pneumoniae and Acinetobacter baumannii.

HK-2 cells = tested on: HK-2 cells
Excerpt: Values are reported relative to Polymyxin B.

Klebsiella pneumoniae = tested on: Klebsiella pneumoniae
Method in brief: (§1)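 Susceptibility testing covered up to nine strains of each Gram-negative pathogen, among them resistant strains and strains with elevated MICs to Polymyxin. Values are MICs in μg/mL.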

Acinetobacter baumannii = tested on: Acinetobacter baumannii
Method in brief: as §1

Escherichia coli = tested on: Escherichia coli
Method in brief: as §1

Pseudomonas aeruginosa = tested on: Pseudomonas aeruginosa
Method in brief: as §1

MIC K. pneumoniae 063 (Klebsiella pneumoniae) [µg/mL]	MIC K. pneumoniae 064 (Klebsiella pneumoniae) [µg/mL]	MIC K. pneumoniae 065 (Klebsiella pneumoniae) [µg/mL]	MIC K. pneumoniae 066 (Klebsiella pneumoniae) [µg/mL]	MIC K. pneumoniae 067 (Klebsiella pneumoniae) [µg/mL]	MIC K. pneumoniae ATCC 4352 (Klebsiella pneumoniae) [µg/mL]	MIC A. baumanii 053 (Acinetobacter baumannii) [µg/mL]	MIC A. baumanii 056 (Acinetobacter baumannii) [µg/mL]	MIC A. baumanii ATCC BAA-747 (Acinetobacter baumannii) [µg/mL]	MIC E. coli 058 (Escherichia coli) [µg/mL]	MIC E. coli 059 (Escherichia coli) [µg/mL]	MIC E. coli 060 (Escherichia coli) [µg/mL]	MIC E. coli 061 (Escherichia coli) [µg/mL]	MIC E. coli ATCC 25922 (Escherichia coli) [µg/mL]	MIC P. aeruginosa 068 (Pseudomonas aeruginosa) [µg/mL]	MIC P. aeruginosa 070 (Pseudomonas aeruginosa) [µg/mL]	MIC P. aeruginosa ATCC 27853 (Pseudomonas aeruginosa) [µg/mL]	MIC K. pneumoniae ATCC 13882 (Klebsiella pneumoniae) [µg/mL]	MIC A. baumanii NCTC 13424 (Acinetobacter baumannii) [µg/mL]	Compound	activity against polymyxin resistant strains [1]	also measured
16 (≈ 13.4 µM)	4 (≈ 3.35 µM)	0.5 (≈ 0.419 µM)	8 (≈ 6.7 µM)	32 (≈ 26.8 µM)	0.25 (≈ 0.209 µM)	32 (≈ 26.8 µM)	4 (≈ 3.35 µM)	0.125 (≈ 0.105 µM)	1 (≈ 0.838 µM)	1 (≈ 0.838 µM)	2 (≈ 1.68 µM)	8 (≈ 6.7 µM)	0.06 (≈ 0.0503 µM)	4 (≈ 3.35 µM)	8 (≈ 6.7 µM)	0.5 (≈ 0.419 µM)			CC(C)C[C@@H]1NC(=O)[C@@H](Cc2ccc(-c3ccccc3)cc2)NC(=O)[C@H](CCN)NC(=O)[C@@H](NC(=O)[C@H](CN)NC(=O)[C@@H](NC(=O)[C@@H]2CNCCN2CC(C)C)C(C)O)CCNC(=O)[C@H]([C@@H](C)O)NC(=O)[C@H](CCN)NC(=O)[C@H](CCN)NC1=O (stereo partly shown) [Example 5] (X1-[Thr(3ξ)][Dap][Dab][Dab][dBip]L[Dab][Dab]T; lactam 3-C)	significantly improves of activity against resistant strains	HK-2 IC50 (HK-2 cells): 36 µg/mL
16 (≈ 12.5 µM)	2 (≈ 1.56 µM)	0.5 (≈ 0.39 µM)	4 (≈ 3.12 µM)	16 (≈ 12.5 µM)	1 (≈ 0.78 µM)	16 (≈ 12.5 µM)	4 (≈ 3.12 µM)	2 (≈ 1.56 µM)	2 (≈ 1.56 µM)	1 (≈ 0.78 µM)	2 (≈ 1.56 µM)	4 (≈ 3.12 µM)	2 (≈ 1.56 µM)	2 (≈ 1.56 µM)	4 (≈ 3.12 µM)	1 (≈ 0.78 µM)			CCC(C)CCCCC(=O)N[C@@H](CCN)C(=O)N[C@H](C(=O)N[C@@H](CCN)C(=O)N[C@H]1CCNC(=O)[C@H]([C@@H](C)O)NC(=O)[C@H](CCN)NC(=O)[C@H](CCN)NC(=O)[C@H](CC(C)C)NC(=O)[C@@H](Cc2ccc(Br)cc2)NC(=O)[C@H](CCN)NC1=O)C(C)O (stereo partly drawn) [Example 2, Polymyxin B[D-(4-bromoPhe)]-6]] ({Octanoyl(6-Me)}-[Dab][Thr(3ξ)][Dab][Dab][Dab][dPhe(4-Br)]L[Dab][Dab]T; lactam 4-C)	enhances activity against polymyxin resistant strains	MIC K. pneumoniae 062 (Klebsiella pneumoniae): 8 µg/mL (≈ 6.24 µM)
		>64			0.25 (≈ 0.226 µM)			1 (≈ 0.905 µM)	>64				1.0 (≈ 0.905 µM)			1 (≈ 0.905 µM)	1 (≈ 0.905 µM)	0.5 (≈ 0.453 µM)	CCCCC(CCN)C(=O)N[C@H](C(=O)N[C@@H](CCN)C(=O)N[C@H]1CCNC(=O)[C@H]([C@@H](C)O)NC(=O)[C@H](CCN)NC(=O)[C@H](CCN)NC(=O)[C@H](CC(C)C)NC(=O)[C@@H](Cc2ccccc2)NC(=O)[C@H](CCN)NC1=O)C(C)O (stereo partly shown) [Example C4, 2-(2-Aminoethyl) hexanoyl polymyxin B nonapeptide, reference compound] (X18-[Thr(3ξ)][Dab][Dab][Dab][dF]L[Dab][Dab]T; lactam 3-C)		activity [1]: only moderate activity; MIC P. aeruginosa CCUG 59347 (Pseudomonas aeruginosa): 2 µg/mL (≈ 1.81 µM)
		2 (≈ 1.61 µM)						1 (≈ 0.803 µM)	2 (≈ 1.61 µM)				1 (≈ 0.803 µM)			0.5 (≈ 0.401 µM)	1 (≈ 0.803 µM)	1 (≈ 0.803 µM)	CCCCCCCC[C@@H]1NC(=O)[C@@H](Cc2ccccc2)NC(=O)[C@H](CCN)NC(=O)[C@@H](NC(=O)[C@H](CCN)NC(=O)[C@@H](NC(=O)[C@H](CCN)NC(=O)CCCCCCC)[C@@H](C)O)CCNC(=O)[C@H]([C@@H](C)O)NC(=O)[C@H](CCN)NC(=O)[C@H](CCN)NC1=O [Example C7, octanoyl-Dab-Thr-Dab-Cy[Dab-Dab-D-Phe-L-OctGly-Dab-Dab-Thr], reference compound] (Octanoyl-[Dab]T[Dab][Dab][Dab][dF][Gly(octyl)][Dab][Dab]T; lactam 4-C)		activity against polymyxin-susceptible strains ([1]; versus compounds in a more negative A Log P range): less active against polymyxin-susceptible strains; MIC K. pneumoniae CA062 (Klebsiella pneumoniae): 16 µg/mL (≈ 12.8 µM); MIC K. pneumoniae CA063 (Klebsiella pneumoniae): 8 µg/mL (≈ 6.42 µM); MIC K. pneumoniae CA064 (Klebsiella pneumoniae): 4 µg/mL (≈ 3.21 µM); MIC K. pneumoniae CA066 (Klebsiella pneumoniae): 2 µg/mL (≈ 1.61 µM); MIC K. pneumoniae CA067 (Klebsiella pneumoniae): 64 µg/mL (≈ 51.4 µM); MIC K. pneumoniae N655 (Klebsiella pneumoniae): 8 µg/mL (≈ 6.42 µM); MIC A. baumannii CA053 (Acinetobacter baumannii): 4 µg/mL (≈ 3.21 µM); MIC A. baumannii CA056 (Acinetobacter baumannii): 4 µg/mL (≈ 3.21 µM); MIC E. coli CA059 (Escherichia coli): 2 µg/mL (≈ 1.61 µM); MIC E. coli CA060 (Escherichia coli): 2 µg/mL (≈ 1.61 µM); MIC E. coli CA061 (Escherichia coli): 4 µg/mL (≈ 3.21 µM); MIC P. aeruginosa CA068 (Pseudomonas aeruginosa): 4 µg/mL (≈ 3.21 µM); MIC P. aeruginosa CA070 (Pseudomonas aeruginosa): 2 µg/mL (≈ 1.61 µM); MIC P. aeruginosa CCUG 59347 (Pseudomonas aeruginosa): 2 µg/mL (≈ 1.61 µM)
